Tested on: HepG2
Test: Genotoxicity in human HepG2 assessed as number of micronucleated cells at 350 uM measured after 24 hrs by micronucleus test (reference value: 14 to 18)
Assay type: toxicity, cell-based
Settings: hepg2, 24 h

## CCCCCc1ccc(-c2cn(-c3c([N+](=O)[O-])ncn3C)nn2)cc1
  Activity: 25

— ChEMBL document CHEMBL4680133, “Novel nitroimidazole derivatives evaluated for their trypanocidal, cytotoxic, and genotoxic activities” (Eur J Med Chem, 2020)
